Results: ChEMBL document CHEMBL3124848, “Crystal structures of human transthyretin complexed with glabridin” (J Med Chem, 2014)

What follows are molecules tested against Transthyretin (Homo sapiens, UniProt P02766, V50M) (assay: Inhibition of transthyretin V30M mutant (unknown origin) expressed in Escherichia coli assessed as inhibition of sodium acetate-mediated aggregation preincubated for 30 mins followed by sodium acetate addition measured after 96 hrs by thioflavin T assay).
`Oc1ccc([C@@H]2COc3cc(O)ccc3C2)cc1` gave an IC50 of 13 µM. Molecule `O=c1c(-c2ccc(O)cc2)coc2cc(O)ccc12` [DAIDZEIN] has an IC50 of 16 µM. Work on `O=c1c(-c2ccc(O)cc2)coc2cc(O)cc(O)c12` [GENISTEIN] yielded an IC50 of 7.8 µM. With `CC1(C)C=Cc2c(ccc3c2OC[C@@H](c2ccc(O)cc2O)C3)O1` [GLABRIDIN] the IC50 was 6.4 µM. Work on `O=c1cc(-c2ccc(O)c(O)c2)oc2cc(O)cc(O)c12` [LUTEOLIN] yielded an IC50 of 6.4 µM.
